Experimental data as given in ChEMBL document CHEMBL3739277, “Design, synthesis, and antibacterial evaluation of novel azolylthioether quinolones as MRSA DNA intercalators” (2015).
Values after ≈ are worked out from the molar mass of the structure shown.

Columns and labels:
Type in all cases: functional
[1] = Antifungal activity against Candida mycoderma ATCC9888 assessed as growth inhibition incubated at 35 degC for 24 hrs by micro broth dilution method; settings: Kregervanrija fluxuum
Saccharomyces cerevisiae = experiment: Antifungal activity against Saccharomyces cerevisiae ATCC9763 assessed as growth inhibition incubated at 35 degC for 24 hrs by micro broth dilution method; settings: ATCC9763, 24 h
Aspergillus flavus = experiment: Antifungal activity against Aspergillus flavus ATCC204304 assessed as growth inhibition incubated at 35 degC for 24 hrs by micro broth dilution method; settings: ATCC204304, 24 h
Bacillus subtilis = experiment: Antibacterial activity against Bacillus subtilis ATCC6633 assessed as growth inhibition incubated at 37 degC for 24 hrs by micro broth dilution method; settings: ATCC6633, 24 h
Micrococcus luteus = experiment: Antibacterial activity against Micrococcus luteus ATCC4698 assessed as growth inhibition incubated at 37 degC for 24 hrs by micro broth dilution method; settings: ATCC4698, 24 h
Staphylococcus aureus [2] = experiment: Antibacterial activity against methicillin resistant Staphylococcus aureus N315 assessed as growth inhibition incubated at 37 degC for 24 hrs by micro broth dilution method; settings: N315, 24 h
Pseudomonas aeruginosa = experiment: Antibacterial activity against Pseudomonas aeruginosa ATCC27853 assessed as growth inhibition incubated at 37 degC for 24 hrs by micro broth dilution method; settings: ATCC27853, 24 h
Candida albicans = experiment: Antifungal activity against Candida albicans ATCC10231 assessed as growth inhibition incubated at 35 degC for 24 hrs by micro broth dilution method; settings: ATCC10231, 24 h
[3] = Antibacterial activity against Eberthella typhosa ATCC14028 assessed as growth inhibition incubated at 37 degC for 24 hrs by micro broth dilution method; settings: ATCC14028, 24 h
Staphylococcus aureus [4] = experiment: Antibacterial activity against Staphylococcus aureus ATCC25923 assessed as growth inhibition incubated at 37 degC for 24 hrs by micro broth dilution method; settings: ATCC25923, 24 h
Cyberlindnera jadinii = experiment: Antifungal activity against Candida utilis ATCC9950 assessed as growth inhibition incubated at 35 degC for 24 hrs by micro broth dilution method; settings: Williopsis jadinii, ATCC9950, 24 h
[5] = Antibacterial activity against Bacillus proteus ATCC13315 assessed as growth inhibition incubated at 37 degC for 24 hrs by micro broth dilution method; settings: ATCC13315, 24 h
Escherichia coli = experiment: Antibacterial activity against Escherichia coli JM109 assessed as growth inhibition incubated at 37 degC for 24 hrs by micro broth dilution method; settings: JM109, 24 h

| Structure (SMILES) | MIC80 [1] [µg/mL] | MIC80 (Saccharomyces cerevisiae) [µg/mL] | MIC80 (Aspergillus flavus) [µg/mL] | MIC (Bacillus subtilis) [µg/mL] | MIC (Micrococcus luteus) [µg/mL] | MIC (Staphylococcus aureus [2]) [µg/mL] | MIC (Pseudomonas aeruginosa) [µg/mL] | MIC80 (Candida albicans) [µg/mL] | MIC [3] [µg/mL] | MIC (Staphylococcus aureus [4]) [µg/mL] | MIC80 (Cyberlindnera jadinii) [µg/mL] | MIC [5] [µg/mL] | MIC (Escherichia coli) [µg/mL] |
| --- | --- | --- | --- | --- | --- | --- | --- | --- | --- | --- | --- | --- | --- |
| O=C(O)c1cn(C2CC2)c2c(Cl)c(N3CCC(NCC(O)Cn4cnc(S)n4)C3)c(F)cc2c1=O (stereo not drawn) | 8 (≈ 15.3 µM) | 8 (≈ 15.3 µM) | 8 (≈ 15.3 µM) | 0.5 (≈ 0.956 µM) | 2 (≈ 3.82 µM) | 4 (≈ 7.65 µM) | 4 (≈ 7.65 µM) | 2 (≈ 3.82 µM) | 0.5 (≈ 0.956 µM) | 0.5 (≈ 0.956 µM) | 4 (≈ 7.65 µM) | 1 (≈ 1.91 µM) | 1 (≈ 1.91 µM) |
| CCn1cc(C(=O)O)c(=O)c2cc(F)c(N3CCN(CC(O)CSc4ncn(Cc5ccc(Cl)cc5Cl)n4)CC3)cc21 (stereo not drawn) | 64 (≈ 101 µM) | 16 (≈ 25.2 µM) | 4 (≈ 6.29 µM) | 64 (≈ 101 µM) | 64 (≈ 101 µM) | 2 (≈ 3.15 µM) | 16 (≈ 25.2 µM) | 64 (≈ 101 µM) | 32 (≈ 50.4 µM) | 2 (≈ 3.15 µM) | 64 (≈ 101 µM) | 4 (≈ 6.29 µM) | 8 (≈ 12.6 µM) |
| CCn1cc(C(=O)O)c(=O)c2cc(F)c(N3CCN(CC4CO4)CC3)cc21 (stereo not drawn) | 1 (≈ 2.66 µM) | 1 (≈ 2.66 µM) | 1 (≈ 2.66 µM) | 64 (≈ 170 µM) | 8 (≈ 21.3 µM) | 2 (≈ 5.33 µM) | 16 (≈ 42.6 µM) | 4 (≈ 10.7 µM) | 16 (≈ 42.6 µM) | 8 (≈ 21.3 µM) | 8 (≈ 21.3 µM) | 4 (≈ 10.7 µM) | 2 (≈ 5.33 µM) |
| Cn1ccnc1SCC(O)CN1CCN(c2cc3c(cc2F)c(=O)c(C(=O)O)cn3C2CC2)CC1 (stereo not drawn) | 16 (≈ 31.9 µM) | 32 (≈ 63.8 µM) | 64 (≈ 128 µM) | 4 (≈ 7.97 µM) | 4 (≈ 7.97 µM) | 2 (≈ 3.99 µM) | 8 (≈ 15.9 µM) | 4 (≈ 7.97 µM) | 1 (≈ 1.99 µM) | 2 (≈ 3.99 µM) | 128 (≈ 255 µM) | 2 (≈ 3.99 µM) | 8 (≈ 15.9 µM) |
| Sc1ncn(Cc2ccc(Cl)c(Cl)c2)n1 | 256 (≈ 984 µM) | 512 (≈ 1970 µM) | 512 (≈ 1970 µM) | 512 (≈ 1970 µM) | 256 (≈ 984 µM) | 128 (≈ 492 µM) | 512 (≈ 1970 µM) | 512 (≈ 1970 µM) | 512 (≈ 1970 µM) | 256 (≈ 984 µM) | 512 (≈ 1970 µM) | 512 (≈ 1970 µM) | 256 (≈ 984 µM) |
| CCn1cc(C(=O)O)c(=O)c2cc(F)c(N3CCN(CC(O)CSc4nccn4C)CC3)cc21 (stereo not drawn) | 64 (≈ 131 µM) | 128 (≈ 261 µM) | 256 (≈ 523 µM) | 16 (≈ 32.7 µM) | 32 (≈ 65.4 µM) | 64 (≈ 131 µM) | 64 (≈ 131 µM) | 16 (≈ 32.7 µM) | 16 (≈ 32.7 µM) | 16 (≈ 32.7 µM) | 64 (≈ 131 µM) | 64 (≈ 131 µM) | 8 (≈ 16.3 µM) |
| O=C(O)c1cn(C2CC2)c2cc(N3CCNCC3)c(F)cc2c1=O [CIPROFLOXACIN] |  |  |  | 1 (≈ 3.02 µM) |  |  | 1 (≈ 3.02 µM) |  | 1 (≈ 3.02 µM) |  |  | 1 (≈ 3.02 µM) |  |
| Sc1ncn(Cc2ccc(Cl)cc2Cl)n1 | 128 (≈ 492 µM) | 512 (≈ 1970 µM) | 256 (≈ 984 µM) | 512 (≈ 1970 µM) | 128 (≈ 492 µM) | 128 (≈ 492 µM) | 256 (≈ 984 µM) | 512 (≈ 1970 µM) | 256 (≈ 984 µM) | 512 (≈ 1970 µM) | 512 (≈ 1970 µM) | 512 (≈ 1970 µM) | 256 (≈ 984 µM) |
| Cn1nnnc1SCC(O)CNC1CCN(c2c(F)cc3c(=O)c(C(=O)O)cn(C4CC4)c3c2Cl)C1 (stereo not drawn) | 1 (≈ 1.86 µM) | 1 (≈ 1.86 µM) | 1 (≈ 1.86 µM) | 1 (≈ 1.86 µM) | 1 (≈ 1.86 µM) | 2 (≈ 3.72 µM) | 1 (≈ 1.86 µM) | 2 (≈ 3.72 µM) | 1 (≈ 1.86 µM) | 2 (≈ 3.72 µM) | 128 (≈ 238 µM) | 1 (≈ 1.86 µM) | 1 (≈ 1.86 µM) |
| O=C(O)c1cn(C2CC2)c2c(Cl)c(N3CCC(NCC4CO4)C3)c(F)cc2c1=O (stereo not drawn) | 2 (≈ 4.74 µM) | 0.25 (≈ 0.593 µM) | 0.5 (≈ 1.19 µM) | 0.25 (≈ 0.593 µM) | 0.25 (≈ 0.593 µM) |  | 0.5 (≈ 1.19 µM) | 2 (≈ 4.74 µM) |  | 0.5 (≈ 1.19 µM) | 4 (≈ 9.48 µM) | 0.25 (≈ 0.593 µM) | 0.5 (≈ 1.19 µM) |
| CCn1cc(C(=O)O)c(=O)c2cc(F)c(N3CCNCC3)cc21 [NORFLOXACIN] |  |  |  | 1 (≈ 3.13 µM) | 2 (≈ 6.26 µM) | 2 (≈ 6.26 µM) | 4 (≈ 12.5 µM) |  | 1 (≈ 3.13 µM) | 2 (≈ 6.26 µM) |  | 8 (≈ 25.1 µM) | 2 (≈ 6.26 µM) |
| O=C(O)c1cn(C2CC2)c2cc(N3CCN(CC(O)CSc4ncn(Cc5ccc(Cl)cc5Cl)n4)CC3)c(F)cc2c1=O (stereo not drawn) | 16 (≈ 24.7 µM) | 64 (≈ 98.8 µM) | 16 (≈ 24.7 µM) | 2 (≈ 3.09 µM) | 2 (≈ 3.09 µM) | 1 (≈ 1.54 µM) | 4 (≈ 6.18 µM) | 32 (≈ 49.4 µM) | 1 (≈ 1.54 µM) | 1 (≈ 1.54 µM) | 4 (≈ 6.18 µM) | 2 (≈ 3.09 µM) | 2 (≈ 3.09 µM) |
| CCn1cc(C(=O)O)c(=O)c2cc(F)c(N3CCN(CC(O)Cn4cnc(S)n4)CC3)cc21 (stereo not drawn) | 128 (≈ 269 µM) | 128 (≈ 269 µM) | 512 (≈ 1070 µM) | 128 (≈ 269 µM) | 64 (≈ 134 µM) | 64 (≈ 134 µM) | 64 (≈ 134 µM) | 128 (≈ 269 µM) | 64 (≈ 134 µM) | 128 (≈ 269 µM) | 64 (≈ 134 µM) | 128 (≈ 269 µM) | 64 (≈ 134 µM) |
| OC(Cn1cncn1)(Cn1cncn1)c1ccc(F)cc1F [FLUCONAZOLE] | 4 (≈ 13.1 µM) | 16 (≈ 52.2 µM) | 256 (≈ 836 µM) |  |  |  |  | 1 (≈ 3.27 µM) |  |  | 8 (≈ 26.1 µM) |  |  |
| O=C(O)c1cn(C2CC2)c2c(Cl)c(N3CCC(NCC(O)CSc4ncn(Cc5ccc(Cl)c(Cl)c5)n4)C3)c(F)cc2c1=O (stereo not drawn) | 1 (≈ 1.47 µM) | 16 (≈ 23.5 µM) | 8 (≈ 11.7 µM) | 0.5 (≈ 0.733 µM) | 0.5 (≈ 0.733 µM) | 0.5 (≈ 0.733 µM) | 0.5 (≈ 0.733 µM) | 0.5 (≈ 0.733 µM) | 0.5 (≈ 0.733 µM) | 0.5 (≈ 0.733 µM) | 8 (≈ 11.7 µM) | 0.5 (≈ 0.733 µM) | 1 (≈ 1.47 µM) |
| O=C(O)c1cn(C2CC2)c2c(Cl)c(N3CCC(NCC(O)CSc4ncn(Cc5ccc(Cl)cc5Cl)n4)C3)c(F)cc2c1=O (stereo not drawn) | 4 (≈ 5.87 µM) | 64 (≈ 93.8 µM) | 64 (≈ 93.8 µM) | 0.5 (≈ 0.733 µM) | 4 (≈ 5.87 µM) | 8 (≈ 11.7 µM) | 1 (≈ 1.47 µM) | 16 (≈ 23.5 µM) | 1 (≈ 1.47 µM) | 2 (≈ 2.93 µM) | 16 (≈ 23.5 µM) | 0.5 (≈ 0.733 µM) | 1 (≈ 1.47 µM) |
| O=C(O)c1cn(C2CC2)c2cc(N3CCN(CC4CO4)CC3)c(F)cc2c1=O (stereo not drawn) | 1 (≈ 2.58 µM) | 1 (≈ 2.58 µM) | 1 (≈ 2.58 µM) | 8 (≈ 20.6 µM) | 2 (≈ 5.16 µM) | 1 (≈ 2.58 µM) | 2 (≈ 5.16 µM) | 2 (≈ 5.16 µM) | 2 (≈ 5.16 µM) | 4 (≈ 10.3 µM) | 2 (≈ 5.16 µM) | 4 (≈ 10.3 µM) | 1 (≈ 2.58 µM) |
| Cn1nnnc1SCC(O)CN1CCN(c2cc3c(cc2F)c(=O)c(C(=O)O)cn3C2CC2)CC1 (stereo not drawn) | 16 (≈ 31.8 µM) | 8 (≈ 15.9 µM) | 8 (≈ 15.9 µM) | 8 (≈ 15.9 µM) | 8 (≈ 15.9 µM) |  | 16 (≈ 31.8 µM) | 8 (≈ 15.9 µM) |  |  | 256 (≈ 508 µM) | 4 (≈ 7.94 µM) | 8 (≈ 15.9 µM) |
| O=C(O)c1cn(C2CC2)c2cc(N3CCN(CC(O)Cn4cnc(S)n4)CC3)c(F)cc2c1=O (stereo not drawn) | 32 (≈ 65.5 µM) | 64 (≈ 131 µM) | 64 (≈ 131 µM) | 4 (≈ 8.19 µM) | 16 (≈ 32.8 µM) | 16 (≈ 32.8 µM) | 4 (≈ 8.19 µM) | 8 (≈ 16.4 µM) | 1 (≈ 2.05 µM) | 2 (≈ 4.09 µM) | 128 (≈ 262 µM) | 4 (≈ 8.19 µM) | 8 (≈ 16.4 µM) |
| NC1CCN(c2c(F)cc3c(=O)c(C(=O)O)cn(C4CC4)c3c2Cl)C1 (stereo not drawn) [CLINAFLOXACIN] |  |  |  | 0.5 (≈ 1.37 µM) | 0.5 (≈ 1.37 µM) | 1 (≈ 2.73 µM) | 1 (≈ 2.73 µM) |  | 1 (≈ 2.73 µM) | 0.5 (≈ 1.37 µM) |  | 0.5 (≈ 1.37 µM) | 1 (≈ 2.73 µM) |
